EPA's ToxRefDB 2

How the values were obtained:
[1] = system: rat; conditions: Prenatal developmental toxicity study, sprague dawley, Oral, Gavage/Intubation, dose end: 15 GD
[2] = system: rat; conditions: Multigenerational reproductive toxicity study; other; Oral; Feed; dose end: 3 generation; group: parental; systemic / in life observation / body weight / body weight
[3] = system: mouse; conditions: Carcinogenicity; cd1; Oral; Feed; dose end: 18 month; group: systemic; systemic / organ weight / liver / absolute + systemic / organ weight / liver / relative to body weight + systemic / pathology microscopic / …
[4] = system: rat; conditions: Subchronic oral toxicity in rodents, sprague dawley, Feed, dose end: 90 day, group: systemic
[5] = system: rat; conditions: Subchronic oral toxicity in rodents, other, Feed, dose end: 13 week
[6] = system: rat; conditions: Multigenerational reproductive toxicity study, other, Oral, Feed, dose end: 2 generation
[7] = system: rat; conditions: Combined chronic toxicity/carcinogenicity, sprague dawley, Oral, Feed, dose end: 106 week, group: systemic
[8] = system: dog; conditions: Chronic toxicity; beagle; Oral; Capsule; dose end: 52 week; group: systemic; systemic / clinical chemistry / alkaline phosphatase (alp/alk) / alkaline phosphatase (alp/alk) + systemic / hematology / blood clotting / …
[9] = system: mouse; conditions: Carcinogenicity; cd1; Oral; [Not Specified]; dose end: 79 week; group: systemic; systemic / hematology / erythrocyte (rbc) count differential / erythrocyte (rbc) + systemic / hematology / hematocrit (hct) / hematocrit (…
[10] = system: dog; conditions: Subchronic oral toxicity in nonrodent, beagle, Capsule, dose end: 13 week, group: systemic, systemic / hematology / blood clotting / blood clotting - activated partial thromboplastin time
[11] = group: developmental, developmental / developmental malformation / bone / delayed ossification
[12] = group: maternal, systemic / in life observation / body weight / body weight gain
[13] = systemic / urinalysis / sediment microscopic / epithelial cells
[14] = systemic / urinalysis / sediment microscopic / epithelial cells + systemic / organ weight / liver / relative to body weight
[15] = group: cholinesterase, cholinesterase / cholinesterase / cholinesterase / cholinesterase (che)
[16] = group: systemic, systemic / organ weight / liver / relative to body weight + systemic / clinical chemistry / [other] / [other] + systemic / in life …
[17] = group: offspring, developmental / offspring survival late / viability index / viability index
[18] = group: offspring, developmental / offspring survival late / viability index / viability index + systemic / in life observation / body weight / offspring (pup…
[19] = group: parental, systemic / organ weight / kidney / absolute
[20] = group: parental, systemic / organ weight / kidney / absolute + systemic / organ weight / kidney / relative to body weight + systemic / organ weight / liver…
[21] = systemic / organ weight / spleen / absolute + systemic / organ weight / liver / relative to body weight

Compound: O=C(O)Cc1c(Cl)ccc(Cl)c1Cl [Chlorfenac]
- LEL [1, 11]: 300 mg/kg/day
- LOAEL [1, 11]: > 300 mg/kg/day
- NEL [1, 11]: 60 mg/kg/day
- NOAEL [1, 11]: ≥ 300 mg/kg/day
- LEL [1, 12]: 300 mg/kg/day
- LOAEL [1, 12]: > 300 mg/kg/day
- NEL [1, 12]: 60 mg/kg/day
- NOAEL [1, 12]: ≥ 300 mg/kg/day
- LEL [2]: 125 mg/kg/day
- LOAEL [2]: > 125 mg/kg/day
- NEL [2]: 25 mg/kg/day
- NOAEL [2]: ≥ 125 mg/kg/day
- LEL [3]: 600 mg/kg/day
- LOAEL [3]: > 600 mg/kg/day
- NEL [3]: 300 mg/kg/day
- NOAEL [3]: ≥ 600 mg/kg/day

Compound: CCCCCOC(=O)COc1cc(N2C(=O)C3=C(CCCC3)C2=O)c(F)cc1Cl [Flumiclorac-pentyl]
- LEL [4, 13]: 659 mg/kg/day
- LOAEL [4, 13]: 659 mg/kg/day
- NEL [4, 14]: 64.9 mg/kg/day
- NOAEL [4, 14]: 64.9 mg/kg/day
- LEL [5, 15]: 73.8 mg/kg/day
- LOAEL [5, 15]: 73.8 mg/kg/day
- NEL [5, 15]: 7.4 mg/kg/day
- NOAEL [5, 15]: 7.4 mg/kg/day
- LEL ([5]; group: systemic, systemic / clinical chemistry / [other] / [other] + systemic / in life observation / food consumption / food efficiency + systemic / in life…): 664 mg/kg/day
- LOAEL ([5]; group: systemic, systemic / organ weight / liver / relative to body weight): 1360 mg/kg/day
- NEL [5, 16]: 67 mg/kg/day
- NOAEL [5, 16]: 664 mg/kg/day
- LEL [6, 17]: 829 mg/kg/day
- LOAEL [6, 17]: 829 mg/kg/day
- NEL [6, 18]: 18 mg/kg/day
- NOAEL [6, 18]: 18 mg/kg/day
- LEL [6, 19]: 18 mg/kg/day
- NEL [6, 19]: < 18 mg/kg/day
- LOAEL [6, 20]: 829 mg/kg/day
- NOAEL [6, 20]: 18 mg/kg/day
- LOAEL ([7]; systemic / organ weight / liver / relative to body weight + systemic / organ weight / kidney / absolute + systemic / organ weight / liver / …): 360 mg/kg/day
- LEL [7, 21]: 3.5 mg/kg/day
- NEL [7, 21]: < 3.5 mg/kg/day
- NOAEL ([7]; systemic / organ weight / spleen / absolute + systemic / organ weight / liver / relative to body weight + systemic / organ weight / kidney…): 35.4 mg/kg/day
- LEL [8]: 1000 mg/kg/day
- LOAEL [8]: 1000 mg/kg/day
- NEL [8]: 100 mg/kg/day
- NOAEL [8]: 100 mg/kg/day
- LEL [9]: 308 mg/kg/day
- LOAEL [9]: 308 mg/kg/day
- NEL [9]: 31.5 mg/kg/day
- NOAEL [9]: 31.5 mg/kg/day
- LEL [10]: 100 mg/kg/day
- LOAEL [10]: 100 mg/kg/day
- NEL [10]: 10 mg/kg/day
- NOAEL [10]: 10 mg/kg/day
